Tested on: SMN2 mRNA
Experiment: RT-qPCR of SMN2FL and SMN2 Δ7 mRNA in GM03813 cells
Assay type: cell-based, human
Conditions: GM03813, 72 h, alone or in combination at 10 nM, RT-qPCR (Example 10, FIG. 12A)
Excerpt: “GM03813 cells” refers to fibroblast cells provided by Coriell Institute for Medical Research. This cell line is described as SPINAL MUSCULAR ATROPHY, TYPE II; SMA2 SURVIVAL OF MOTOR NEURON 1, TELOMERIC; SMN1. The relevant gene is SMN1; the chromosomal location is 5q12.2-q13.3, the allelic variant is described as 1 exons 7 and 8 deleted, SPINAL MUSCULAR ATROPHY, TYPE I; and the identified mutation: is EX7-8DEL.
Seventy-two hours later, total cellular RNA was isolated from the treated cells and reverse transcribed into cDNA. SMN2 mRNA expression was assessed with RT-qPCR using primer pairs specific for SMN2FL or SMN2 Δ7. SMN2 mRNA expression was also assessed by semi-quantitative RT-PCR using a primer pair that amplifies both SMN2FL and SMN2 Δ7 followed by DdeI digestion (PCR/digestion). […] After digestion, both bands were reduced by 115 bp, resulting in two products: 392 bp (SMN2FL) and 338 bp (SMN2 Δ7) as shown on the gel of FIG. 3D. FIG. 3A-3D show dose-dependent changes in SMN2FL and SMNΔ7 mRNA as assessed by RT-qPCR and PCR/digestion respectively. FIG. 3E-3G are graphic plots of data from quantitating the intensity of bands in FIG. 3D.
SMA patient derived fibroblasts were obtained from Coriell Institute (Camden, N.J., USA), including GM00232 (SMA type I with 2 copies of SMN2 gene) and GM03813 (SMA type II with 3 copies of SMN2 gene). These cells were cultured at 5% C02 and 37° C. in modified MEM medium (Gibco, Thermo Fisher Scientific, Carlsbad, Calif.) supplemented with 15% bovine calf serum (Sigma-Aldrich), 1% NEAA (Gibco) and 1% penicillin/streptomycin (Gibco). To transfect oligonucleotides including saRNAs, siRNA and ASO, cells were seeded into 6-well plates at a density of 1×10^5 cells/well and were transfected with oligonucleotides at different concentrations using RNAiMax (Invitrogen, Carlsbad, Calif.) according to the reverse transfection protocol provided by the manufacturer for 72 hours (unless otherwise specified). For Risdiplam treatment of cells, Risdiplam (HY-109101, MedChem Express Company, Monmouth Junction, N.J., USA) dissolved in DMSO was added directly to cells at desired concentration for 72 hours unless specified otherwise.
For RNA isolation from cultured cells, total cellular RNA was isolated from treated cells using an RNeasy Plus Mini kit (Qiagen, Hilden, Germany) according to its manual. To isolated RNA from animal tissues, tissues were harvested and stored at RNA later (AM7021, Thermo Fisher). Total RNA was then isolated using MagPure Total RNA Micro LQ kit (Magen, R6621, China) by auto-pure96 machine (ALLSHENG, China). The resultant RNA (1 μg) was reverse transcribed into cDNA by using a PrimeScript RT kit containing gDNA Eraser (Takara, Shlga, Japan). The resultant cDNA was amplified in an ABI 7500 Fast Real-time PCR System (Applied Biosystems; Foster City, Calif.) using SYBR Premix Ex Taq 11 (Takara, Shlga, Japan) reagents and primers which specifically amplified full-length (SMN2FL) or A7 SMN2 mRNA (SMN2 Δ7) (FIG. 1). The reaction conditions were: 95° C. for 3 seconds (1 cycle) and 60° C. for 30 seconds (40 cycles). Amplification of TBP gene served as an internal control.

Row | Substance | SMN2FL mRNA fold change [fold] | SMN2 Δ7 mRNA fold change [fold]
1 | DS06-0031: saRNA targeting SMN2 promoter at -1266; SEQ ID NO: 478/479 (chain 1 UUGUACACUUGGUCAACAUTT; chain 2 AUGUUGACCAAGUGUACAATT; chemistry not given here) | 0.9 | 1.9
2 | DS06-0067: saRNA targeting SMN2 promoter at -293; SEQ ID NO: 480/481 (chain 1 CACUGGAGUUCGAGACGAGTT; chain 2 CUCGUCUCGAACUCCAGUGTT; chemistry not given here) | 1.3 | 2.4
